According to EP0713875B1, “Sulfonamides” (F. Hoffmann-La Roche AG, priority 1994, dated 1996):

Key:
[1] = tested on: isolierten Aortenringen der Ratte; experiment: Inhibition of endothelin-induced contractions in isolated rat aortic rings; type: cell-based, Wistar-Kyoto-Ratten; settings: for Kb: Rattus norvegicus, 10 min, endothelium-denuded thoracic aorta rings, 10 min incubation with test compound, cumulative doses of Endothelin-1, text calls the values pA2 = log(DR-1)-log(antagonist concentration), read-out: Dosisverhältnis (Rechtsverschiebung) (converted)
Protocol: II. Hemmung Endothelin-induzierter Kontraktionen an isolierten Aortenringen der Ratte
Aus der Thoraxaorta von erwachsenen Wistar-Kyoto-Ratten wurden Ringe von 5 mm Länge herausgeschnitten. Das Endothel wurde durch leichtes Reiben der Innenfläche entfernt. Jeder Ring wurde bei 37°C in 10 ml Krebs-Henseleit-Lösung unter Begasung mit 95% O2 und 5% CO2 in ein isoliertes Bad eingetaucht. Die isometrische Spannung der Ringe wurde gemessen. Die Ringe wurden auf eine Vorspannung von 3 g gedehnt. Nach 10 Minuten Inkubation mit der Testverbindung oder Vehikel wurden kumulative Dosen von Endothelin-1 zugegeben. Die Aktivität der Testverbindung wurde ermittelt durch die zu beobachtende Rechtsverschiebung der Dosis-Wirkungskurve von Endothelin-1 in gegenwart verschiedener Konzentrationen an Antagonist. Diese Rechtsverschiebung (oder auch "dose ratio", DR) entspricht dabei dem Quotienten aus den EC50-Werten von Endothelin-1 in Gegenwart und in Abwesenheit von Antagonist, wobei der EC50-Wert die für eine halbmaximale Kontraktion erforderliche Endothelin-Konzentration bezeichnet.
Aus der "dose ratio" DR wurde mittels eines Computerprogramms für jede einzelne Dosis-Wirkungskurve der entsprechende PA2-Wert nach untenstehender Gleichung berechnet, welcher ein Mass für die Aktivität der Testverbindung darstellt. pA2 = log(DR-1)-log(Antagonist-Konzentration) [formula]
Die EC50 von Endothelin in Abwesenheit von Testverbindungen ist 0,3 nM.
Die mit Verbindungen der Formel I so erhaltenen Werte für pA2 sind in Tabelle 2 angegeben. Tabelle 2

[2] = target: T1, humanen ETA-Rezeptor (Homo sapiens, UniProt P25101); experiment: Inhibition of endothelin binding at the recombinant ETA receptor (125I-endothelin, membranes of baculovirus-infected insect cells); settings: concentration required to inhibit 50% of the specific binding of 125I-Endothelin; incubation 2 h at 20°C or 24 h at 4°C
T1 construct: made in house; host or cells: insect cells (baculovirus expression system); membrane preparation
T1 sequence (P25101 21-427): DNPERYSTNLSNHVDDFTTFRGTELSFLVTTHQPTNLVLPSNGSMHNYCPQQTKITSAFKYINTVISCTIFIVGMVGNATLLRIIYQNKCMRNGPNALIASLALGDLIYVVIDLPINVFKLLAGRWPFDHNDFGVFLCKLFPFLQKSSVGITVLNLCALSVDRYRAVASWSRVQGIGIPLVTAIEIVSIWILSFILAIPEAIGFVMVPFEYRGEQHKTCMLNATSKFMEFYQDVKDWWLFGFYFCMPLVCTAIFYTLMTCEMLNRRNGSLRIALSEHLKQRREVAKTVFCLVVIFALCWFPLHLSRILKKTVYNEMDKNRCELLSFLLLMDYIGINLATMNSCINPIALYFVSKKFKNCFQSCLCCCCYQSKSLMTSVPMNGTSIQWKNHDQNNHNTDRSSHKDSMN
Protocol: I: Hemmung der Endothelin-Bindung am recombinanten ETA-Rezeptor
Baculovirus-infizierte Insektenzellen aus einem 23 l Fermenter werden 60 Stunden nach der Infektion abzentrifugiert (3 000 x g, 15 Minuten, 4°C), in Tris-Puffer (5 mM, pH 7.4, 1 mM MgCl2) resuspendiert und erneut zentrifugiert. Nach erneuter Resuspension und Zentrifugation werden die Zellen in 800 ml des gleichen Puffers suspendiert und bei -120°C eingefroren. Der Aufbruch der Zellen erfolgt beim Auftauen der Suspension in diesem hypotonen Puffergemisch. Nach wiederholtem Gefrier/Auftau-Zyklus wird die Suspension homogenisiert und zentrifugiert (25 000 x g, 15 Minuten, 4°C). Nach Suspension in Tris-Puffer (75 mM, pH 7.4, 25mM MgCl2, 250 mM Saccharose) werden 1 ml Aliquots (Proteingehalt ca. 3.5 mg/ml) bei -85°C aufbewahrt.
Für den Bindungs-Assay werden die eingefrorenen Membranpräparate aufgetaut und nach 10 Minuten Zentrifugieren mit 25000 g bei 20°C in Assay-Puffer (50 mM Tris-Puffer pH 7.4, enthaltend 25 mM MnCl2, 1 mM EDTA und 0,5% Rinderserumalbumin) resuspendiert. […] Die Inkubation wird 2 Stunden bei 20°C oder 24 Stunden bei 4°C durchgeführt. Die Trennung von freiem und Membran-gebundenen Radioliganden wird durch Filtration über Glasfaserfilter vorgenommen.

Molecule | EC50 ([1]; endothelin concentration required for half-maximal contraction, without antagonist, read-out: EC50 von Endothelin in Abwesenheit von Testverbindungen) [nM] | IC50 [2] [nM] | Kb [1] [nM]
Endothelin [reference compound] | 0.3 | – | –
COc1ccccc1Oc1c(NS(=O)(=O)c2ccc(C)cn2)nc(N2CCOCC2)nc1OCCOC(=O)Nc1ccccn1 [Beispiel 34, Pyridin-2-yl-carbaminsäure 2-[5-(2-methoxy-phenoxy)-6-(5-methyl-pyridin-2-ylsulfonylamino)-2-morpholin-4-yl-pyrimidin-4-yloxy]-ethylester] | – | 0.3 | 0.2
COc1ccccc1Oc1c(NS(=O)(=O)c2ccc(C(C)C)cn2)nc(N2CCOCC2)nc1OCCOC(=O)Nc1ccccn1 [Beispiel 51, Pyridin-2-ylcarbaminsäure 2-[6-(5-isopropylpyridin-2-ylsulfonylamino)-5-(2-methoxy-phenoxy)-2-morpholin-4-yl-pyrimidin-4-yloxy]ethylester] | – | 0.4 | 0.631
